Test results as given in patent US5924973A, “Method of treating a disease process in a luminal structure” (The Trustees of Columbia University in the City of New York, priority 1996, dated 1999).

Experiments:
[1] = Biodistribution of 99mTc-MAG3 and 188Re-MAG3 in a dual label study, tail vein injection; format: in vivo, rats; details: ± standard deviation
Source text: Biodistribution Data for ^99m Tc-MAG3 and ^188 Re-MAG3 in a dual label study

[2] = Dual label excretion studies of 188Re-MAG3 and 99mTc-MAG3 in rats (urine, feces); format: in vivo; details: simultaneously injected in rats
Source text: Comparison of the Excretion of ^188 Re-MAG3 with ^99 mTc-MAG3 in rats
Dual Label Excretion Studies of ^188 Re-MAG3 and ^99m Tc-MAG3 in Rats

O=C(O)C[N]1C(=O)C[N]2C(=O)C[N]3C(=O)C[S][99Tc-]132=[O] [^99m Tc-MAG3, reference compound]
Biodistribution Data for ^99m Tc-MAG3, blood ([1]; 2 h): 0.18 ± 0.02 % inj. dose/g tissue | Biodistribution Data for ^99m Tc-MAG3, blood ([1]; 6 h): 0.13 ± 0.00 % inj. dose/g tissue | Biodistribution Data for ^99m Tc-MAG3, blood ([1]; 24 h): 0.05 ± 0.00 % inj. dose/g tissue | Biodistribution Data for ^99m Tc-MAG3, bone ([1]; 2 h): 0.05 ± 0.02 % inj. dose/g tissue | Biodistribution Data for ^99m Tc-MAG3, bone ([1]; 6 h): 0.03 ± 0.03 % inj. dose/g tissue | Biodistribution Data for ^99m Tc-MAG3, bone ([1]; 24 h): 0.02 ± 0.01 % inj. dose/g tissue | Biodistribution Data for ^99m Tc-MAG3, contents of l.i. ([1]; 2 h): 0.72 ± 0.18 % inj. dose/g tissue | Biodistribution Data for ^99m Tc-MAG3, contents of l.i. ([1]; 6 h): 1.16 ± 0.23 % inj. dose/g tissue | Biodistribution Data for ^99m Tc-MAG3, contents of l.i. ([1]; 24 h): 0.05 ± 0.01 % inj. dose/g tissue | Biodistribution Data for ^99m Tc-MAG3, contents of s.i. ([1]; 2 h): 1.84 ± 2.27 % inj. dose/g tissue | Biodistribution Data for ^99m Tc-MAG3, contents of s.i. ([1]; 6 h): 0.08 ± 0.03 % inj. dose/g tissue | Biodistribution Data for ^99m Tc-MAG3, contents of s.i. ([1]; 24 h): 0.02 ± 0.01 % inj. dose/g tissue | Biodistribution Data for ^99m Tc-MAG3, heart ([1]; 2 h): 0.09 ± 0.02 % inj. dose/g tissue | Biodistribution Data for ^99m Tc-MAG3, heart ([1]; 6 h): 0.08 ± 0.01 % inj. dose/g tissue | Biodistribution Data for ^99m Tc-MAG3, heart ([1]; 24 h): 0.04 ± 0.00 % inj. dose/g tissue | Biodistribution Data for ^99m Tc-MAG3, kidneys ([1]; 2 h): 0.61 ± 0.11 % inj. dose/g tissue | Biodistribution Data for ^99m Tc-MAG3, kidneys ([1]; 6 h): 0.43 ± 0.09 % inj. dose/g tissue | Biodistribution Data for ^99m Tc-MAG3, kidneys ([1]; 24 h): 0.40 ± 0.11 % inj. dose/g tissue | Biodistribution Data for ^99m Tc-MAG3, large intestine ([1]; 2 h): 0.14 ± 0.02 % inj. dose/g tissue | Biodistribution Data for ^99m Tc-MAG3, large intestine ([1]; 6 h): 0.18 ± 0.00 % inj. dose/g tissue | Biodistribution Data for ^99m Tc-MAG3, large intestine ([1]; 24 h): 0.06 ± 0.00 % inj. dose/g tissue | Biodistribution Data for ^99m Tc-MAG3, liver ([1]; 2 h): 0.15 ± 0.02 % inj. dose/g tissue | Biodistribution Data for ^99m Tc-MAG3, liver ([1]; 6 h): 0.15 ± 0.00 % inj. dose/g tissue | Biodistribution Data for ^99m Tc-MAG3, liver ([1]; 24 h): 0.11 ± 0.01 % inj. dose/g tissue | Biodistribution Data for ^99m Tc-MAG3, lung ([1]; 2 h): 0.15 ± 0.04 % inj. dose/g tissue | Biodistribution Data for ^99m Tc-MAG3, lung ([1]; 6 h): 0.07 ± 0.02 % inj. dose/g tissue | Biodistribution Data for ^99m Tc-MAG3, lung ([1]; 24 h): 0.04 ± 0.03 % inj. dose/g tissue | Biodistribution Data for ^99m Tc-MAG3, small intestine ([1]; 2 h): 0.12 ± 0.04 % inj. dose/g tissue | Biodistribution Data for ^99m Tc-MAG3, small intestine ([1]; 6 h): 0.07 ± 0.01 % inj. dose/g tissue | Biodistribution Data for ^99m Tc-MAG3, small intestine ([1]; 24 h): 0.03 ± 0.00 % inj. dose/g tissue | Biodistribution Data for ^99m Tc-MAG3, spleen ([1]; 2 h): 0.06 ± 0.02 % inj. dose/g tissue | Biodistribution Data for ^99m Tc-MAG3, spleen ([1]; 6 h): 0.07 ± 0.01 % inj. dose/g tissue | Biodistribution Data for ^99m Tc-MAG3, spleen ([1]; 24 h): 0.06 ± 0.00 % inj. dose/g tissue | Biodistribution Data for ^99m Tc-MAG3, thyroid ([1]; 2 h): 2.41 ± 0.95 % inj. dose/g tissue | Biodistribution Data for ^99m Tc-MAG3, thyroid ([1]; 6 h): 2.43 ± 0.24 % inj. dose/g tissue | Biodistribution Data for ^99m Tc-MAG3, thyroid ([1]; 24 h): 0.76 ± 0.59 % inj. dose/g tissue | distribution and elimination, 99mTc-MAG3 versus 188Re-MAG3 [2]: identical
